Here are results for six compounds from PMC6668378, “Maturation of coagulation factor IX during Xase formation as deduced using factor VIII‐derived peptides” (FEBS Open Bio, 2019).

Read-outs that look alike come from different tables or passages of the source. Square brackets hold non-standard residues; d marks the D form. Ends that are not written are not given here. Peptide text beside a SMILES is read from it. sY = N[C@@H](Cc1ccc(OS(=O)(=O)O)cc1)C(=O)O

For experiment [1], the system named is activation peptide of factor IX and factor X. To be noted: cited from earlier work; for affinity towards activation peptide binding site relative to active site: factor IX and factor X. The text has this:
In the protease factors IX and X, proteolytic activation at Arg180 (FX: Arg194) and Arg145 releases an activation peptide, triggering a conformational disorder‐to‐order transition in the serine protease domain (Figs 2 and S1). The activation peptide is positioned between the light chain (consisting of the N‐terminal Gla, EGF1 and EGF2 domains) and the trypsin‐like serine protease domain. Light and heavy chains remain covalently linked via a disulfide bond. In both factor IX and factor X, the activation peptide harbours an intriguing high‐affinity binding site for benzamidine/arginine, exceedin ...

In experiment [2] the target is T1, FIX wt (Homo sapiens, UniProt P00740).
T1 construct: made in house; host or cells: Escherichia coli
The experiment in a line: SAM5 binding of zymogenic FIX wt to immobilized FVIIIa-derived peptide. To be noted: no additive; peptide immobilized on carboxymethyl-dextran chip, FIX wt 10-250 nM in mobile phase, 40 μL/min, 4 min association, 4 min dissociation, one-to-one two-state model; 20 mM HEPES pH 7.5, 150 mM NaCl, 5 mM CaCl2. The protocol: (§1) Factor IX protein variants were expressed in Escherichia coli, refolded, purified and activated as described elsewhere 8, 9, 10.
(§2) The factor VIII‐derived peptides Ser558‐Gln565 (SVDQRGNQ) and Lys713‐Arg740 (KHTGDsYsYEDSsYEDISAYLLSKNNAIEPR; sY: sulfotyrosine) were purchased from JPT Peptide Technologies. Quality was controlled by HPLC and mass spectrometry and confirmed to be of better than 90% homogeneity.
(§3) Prior to the chip calibration at 22 °C, the instrument was flushed with a flow rate of 40 μL·min^−1 for 5 to 10 min. Chip calibration was performed using the SAM5 program with gain of 180 and a phase difference of 0.363.
(§4) The SAM5 instrument with a dextran‐COOH‐coated gold chip (NanoTemper Technologies) was equilibrated using filtered and degassed PBS running buffer, and the chip was calibrated as described above. 1‐ethyl‐3‐(3‐dimethylaminopropyl) carbodiimide (EDC) and N‐hydroxysuccinimide (NHS) were dissolved in ddH2O to a final concentration of 400 mM and 100 mM, respectively. To activate the chip, EDC and NHS were mixed at equal volume, resulting in the final concentrations of 200 mM EDC and 50 mM NHS. […]
(§5) Firstly, pumps were washed using filtered and degassed running buffer (20 mM HEPES pH 7.5, 150 mM NaCl, 5 mM CaCl2). […] The sensogram SAM5 data were exported to Origin and TraceDrawer, allowing to analyse and quantify the protein binding affinities, as described in the SAM5 user manual. […]

Experiment [3] has as its target T2, FIXa wt (Homo sapiens, UniProt P00740).
T2 construct: made in house; host or cells: Escherichia coli
The experiment in a line: SAM5 binding of activated FIXa wt to immobilized FVIIIa-derived peptide. To be noted: no additive, FIXa wt as analyte 10-250 nM, pH 7.5, 5 mM CaCl2. The protocol: as §1, §2, §3, §4
(§6) Firstly, pumps were washed using filtered and degassed running buffer (20 mM HEPES pH 7.5, 150 mM NaCl, 5 mM CaCl2). […] The sensogram SAM5 data were exported to Origin and TraceDrawer, allowing to analyse and quantify the protein binding affinities, as described in the SAM5 user manual.

For experiment [4], the target named is T3, FIX‐R170L (Homo sapiens, UniProt P00740, R384L).
T3 construct: made in house; host or cells: Escherichia coli
Description: SAM5 binding of zymogenic FIX-R170L (Padua) to immobilized FVIIIa-derived peptide. To be noted: no additive, FIX-R170L as analyte 10-250 nM, pH 7.5, 5 mM CaCl2. The protocol: as §1, §2, §3, §4, §6

For experiment [5], the target named is T4, FIXa R170L (Homo sapiens, UniProt P00740, R384L).
T4 construct: made in house; host or cells: Escherichia coli
Description: SAM5 binding of activated FIXa R170L (Padua) to immobilized FVIIIa-derived peptide. To be noted: no additive, FIXa R170L as analyte 10-250 nM, pH 7.5, 5 mM CaCl2. The protocol:
as §1, §2, §3, §4, §6

Experiment [6] has as its system coagulation factor VIII (nonactivated FVIII). The experiment in a line: Surface acoustic wave (SAM5) binding of FIX(a) variants to immobilized factor VIII. The protocol: as §3
as §4, with “NHS. The mixture was rapidly placed into position A1 of the tray holder. If carried out properly, the baseline will increase. Subsequently, the ligand (protein ligands at 250–500 nM concentration, peptidic ligands at 100 μM to 1 mM concentration) was placed into the tray holder at position A1. The binding of the ligand to the dextran matrix is based on electrostatic interactions.” for “NHS.”
as §5

In experiment [7] the target is activated factor VIIIa (FVIIIa). Description: Surface acoustic wave (SAM5) binding of FIX(a) variants to immobilized activated factor VIIIa. The following applies: for Kd: FVIIIa immobilized on dextran chip, SAM5 Blue surface acoustic wave, analyte 10-250 nM, 40 μL/min, 20 mM HEPES pH 7.5, 150 mM NaCl, 5 mM CaCl2, read-out: Kd, interaction with activated factor VIIIa. The protocol:
pro‐FVIII was generously provided by Baxter Biosciences (Vienna, Austria). Human thrombin was purchased from Sigma. For activation, 100 μg FVIII lyophilisate was dissolved in ddH2O and spin‐dialysed by repeated concentration in 30 kDa cut‐off Amicon concentrators to a final concentration of ~ 0.2 mg·mL^−1. FVIII was activated by thrombin similar to protocols described elsewhere 11, 12. Briefly, thrombin was dissolved in 20 mM Hepes, pH 7.5, 100 mM NaCl and 5 mM CaCl2. 1 unit of thrombin was added to 1000 units of FVIII (100 μg) and incubated for 15 min at 37 °C without shaking. The protein mixture was then dialysed by in total four centrifugation steps against a 4 °C cold wash buffer consisting of 50 mM Hepes, pH 7.4, 300 mM NaCl and 2.5 mM CaCl2. The reaction was stopped after the second concentration step by adding 20 μL 50 mM PMSF to inhibit thrombin. The activation of FVIIIa was controlled by SDS/PAGE to observe the A1, A2 and A3‐C1‐C2 at ~55 kDa, 40 kDa and 70 kDa, respectively.
as §3
The SAM5 instrument with a dextran‐COOH‐coated gold chip (NanoTemper Technologies) was equilibrated using filtered and degassed PBS running buffer, and the chip was calibrated as described above. 1‐ethyl‐3‐(3‐dimethylaminopropyl) carbodiimide (EDC) and N‐hydroxysuccinimide (NHS) were dissolved in ddH2O to a final concentration of 400 mM and 100 mM, respectively. To activate the chip, EDC and NHS were mixed at equal volume, resulting in the final concentrations of 200 mM EDC and 50 mM NHS. The mixture was rapidly placed into position A1 of the tray holder. […]
as §5

T1 sequence (P00740 29-461 limits assumed): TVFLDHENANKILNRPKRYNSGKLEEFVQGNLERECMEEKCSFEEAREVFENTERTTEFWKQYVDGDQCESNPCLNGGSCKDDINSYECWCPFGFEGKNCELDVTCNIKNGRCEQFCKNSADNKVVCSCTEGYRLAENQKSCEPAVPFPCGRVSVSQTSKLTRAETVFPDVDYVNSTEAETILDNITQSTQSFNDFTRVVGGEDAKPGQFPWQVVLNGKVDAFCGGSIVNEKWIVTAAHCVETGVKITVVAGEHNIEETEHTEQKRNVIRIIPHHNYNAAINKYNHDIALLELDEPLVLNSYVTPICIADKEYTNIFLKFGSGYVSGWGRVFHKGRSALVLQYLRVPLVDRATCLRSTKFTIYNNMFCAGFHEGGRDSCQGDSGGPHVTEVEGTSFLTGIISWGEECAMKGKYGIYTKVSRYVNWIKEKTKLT
T2 sequence (P00740 227-461 limits assumed): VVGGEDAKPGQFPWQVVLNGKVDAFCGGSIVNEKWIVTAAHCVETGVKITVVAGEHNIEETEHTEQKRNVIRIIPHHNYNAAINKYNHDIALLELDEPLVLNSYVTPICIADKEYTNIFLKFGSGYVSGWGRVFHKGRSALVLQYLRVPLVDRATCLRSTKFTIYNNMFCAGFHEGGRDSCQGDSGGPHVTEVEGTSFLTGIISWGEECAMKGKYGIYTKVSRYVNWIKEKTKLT
T2 sequence (P00740 47-191 partner limits assumed): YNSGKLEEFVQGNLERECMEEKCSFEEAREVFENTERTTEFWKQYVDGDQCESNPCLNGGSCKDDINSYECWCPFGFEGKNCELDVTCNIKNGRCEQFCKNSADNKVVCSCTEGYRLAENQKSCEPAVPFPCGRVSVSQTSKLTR
T4 sequence (P00740 227-461 R384L): as the sequence (P00740 227-461 limits assumed) above, with R158L counted along it
T4 sequence (P00740 47-191 partner limits assumed): as the sequence (P00740 47-191 partner limits assumed) above
T3 sequence (P00740 133-461 R384L limits assumed): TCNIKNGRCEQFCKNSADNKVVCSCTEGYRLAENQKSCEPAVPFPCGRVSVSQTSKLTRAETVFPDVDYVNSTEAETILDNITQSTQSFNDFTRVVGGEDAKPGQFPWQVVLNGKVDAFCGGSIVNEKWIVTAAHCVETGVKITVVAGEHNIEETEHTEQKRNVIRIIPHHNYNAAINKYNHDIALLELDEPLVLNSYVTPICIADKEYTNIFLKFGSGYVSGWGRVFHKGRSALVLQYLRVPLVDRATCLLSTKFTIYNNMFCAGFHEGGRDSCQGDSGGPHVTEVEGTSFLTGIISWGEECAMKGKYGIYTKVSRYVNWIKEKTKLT

Take `N=C(N)c1ccccc1` [benzamidine]: in experiment [1], the “affinity towards activation peptide binding site relative to active site” value is “exceeding the affinity towards the active site by an order of magnitude”.

Usually Kd stands for the concentration at which binding is half-saturated. As to `CC[C@H](C)[C@H](NC(=O)[C@H](C)NC(=O)[C@H](CC(N)=O)NC(=O)[C@H](CC(N)=O)NC(=O)[C@H](CCCCN)NC(=O)[C@H](CO)NC(=O)[C@H](CC(C)C)NC(=O)[C@H](CC(C)C)NC(=O)[C@H](Cc1ccc(O)cc1)NC(=O)[C@H](C)NC(=O)[C@H](CO)NC(=O)[C@@H](NC(=O)[C@H](CC(=O)O)NC(=O)[C@H](CCC(=O)O)NC(=O)[C@H](Cc1ccc(OS(=O)(=O)O)cc1)NC(=O)[C@H](CO)NC(=O)[C@H](CC(=O)O)NC(=O)[C@H](CCC(=O)O)NC(=O)[C@H](Cc1ccc(OS(=O)(=O)O)cc1)NC(=O)[C@H](Cc1ccc(OS(=O)(=O)O)cc1)NC(=O)[C@H](CC(=O)O)NC(=O)CNC(=O)[C@@H](NC(=O)[C@H](Cc1c[nH]cn1)NC(=O)[C@@H](N)CCCCN)[C@@H](C)O)[C@@H](C)CC)C(=O)N[C@@H](CCC(=O)O)C(=O)N1CCC[C@H]1C(=O)N[C@@H](CCCNC(=N)N)C(=O)O` [a2 peptide, KHTGDsYsYEDSsYEDISAYLLSKNNAIEPR] (H-KHTGD[sY][sY]EDS[sY]EDISAYLLSKNNAIEPR-OH), the Kd in experiment [2] is 65.8 ± 23.5 nM; in experiment [3], 98.9 ± 11.6 nM; in experiment [4], 52.8 ± 9.75 nM; in experiment [5] it was 103 ± 16.6 nM.

Turning to SVDQRGNQ [558‐loop, SVDQRGNQ], the Kd in experiment [2] is 172 ± 37.6 nM; in experiment [3], 457 ± 121 nM; in experiment [4], 173 ± 57.1 nM; in experiment [5], 374 ± 138 nM.

Take `N=C(N)NCCC[C@H](N)C(=O)O` [arginine]: the “affinity towards activation peptide binding site relative to active site” value in experiment [1] was “exceeding the affinity towards the active site by an order of magnitude”.

On to “FIX wt: recombinant zymogenic factor IX wild-type, expressed in Escherichia coli and refolded”, for which the “affinity to cofactor VIII relative to activated FIXa wt” value in experiment [6] (FIX wt versus FIXa wt) is recorded as “more than 10 fold”. The Kd was 65.8 ± 21.2 nM in experiment [6] (analyte incubated with 1 μM aprotinin (BPTI), FVIII immobilized on dextran chip, SAM5 Blue surface acoustic wave, analyte 10-250 nM, 40 μL/min, 20 mM HEPES pH 7.5, 150 mM NaCl, 5 mM CaCl2, read-out: Kd, interaction with nonactivated factor VIII); 72.2 ± 60.2 nM in experiment [7] (analyte incubated with 1 μM aprotinin (BPTI)); 83.6 ± 140 nM in experiment [7] (analyte incubated with 1 mM benzamidine). Besides, the “higher affinity of zymogenic FIX wt than FIXa wt for activated factor VIIIa” value in experiment [7] (in the presence of both benzamidine and BPTI) is “confirmed also when activated factor VIIIa was used as a binding partner”.

On to “basic pancreatic trypsin inhibitor [BPTI]”, for which, in experiment [1] (factor IX/X, background statement, no reference given), the “binding to activation peptide versus active site” value is given as “do not bind to the activation peptide but to the active site exclusively”.
